Measurements as given in patent publication US20250228761A1, “COMPOSITION COMPRISING A SURFACE-REACTED CALCIUM CARBONATE AND A TANNIN” (Omya International AG, priority 2021, published 2025).

Experiment: In vitro measurement of antiperspirant effect (SOD4 device, Smart-Pore microchannels)
Details: 80% hygrometry, 2 mg/cm^2 dose
Protocol: In vitro measurement of antiperspirant activity was measured with an SOD4 device from Microfactory, France. The SOD4 device is an automated biomimetic system that imitates the sweating process. The device comprises (1) Smart-Pore™: a silicone microfluidic chip containing microchannels which mimic skin pores (number of pores per chip: 4; dimensions of the pores: 60 μm×60 μm×2 mm; material: polydimethylsiloxane); (2) a pressure system controlling the flow of sweat in the pores down to nanoliter volumes; (3) a climate chamber regulated in humidity/temperature to reproduce perspiration conditions; (4) an optical system to monitor and record the interaction between the antiperspirant and artificial sweat.
Known antiperspirants block sweat pores thereby reducing sweating of a subject. The blocking is caused by a precipitate or clot in the sweat pore which is formed by interaction of the antiperspirant with components of sweat. The SOD4 device mimics this process and allows for analyzing the interaction of an antiperspirant sample and artificial sweat in the microfluidic channel. The analysis includes, e.g. detection of precipitate/clot formation, measuring precipitate/clot formation time, and measuring pressure (bursting pressure) which is necessary for removing the precipitate/clot from the microchannel. […]

**Q.** Which “Burst pressure (mbar)*” value (average of the maximal pressure applied before unclogging of precipitate/clot from the microchannel, after one hour interaction with artificial sweat at 25° C.) does the source give for Aluminium chlorohydrate [Sample 4] here?
**A.** 699 +/− 34 mbar

**Q.** What about the “Clot formation time” value (average over all observed clots, artificial sweat, 25° C.) of the same substance?
**A.** 2047 s
